According to US20140341922A1, “Method for Overcoming Tolerance to Targeted Anti-Cancer Agent” (SUN R&DB Foundation, priority 2011, published 2014):

Legend:
[1] = system: 13 HNSCC and 6 NSCLC cells; test: MTS viability assay in PCPs and UAPs; type: cell-based, human; conditions: PCPs, 25 μg/ml, 7 days
Procedure: Cells were cultured in 96-well poly(poly-2-hydroxyethyl methacrylate [HEMA])-coated plates (PCPs) or ultra-low attached plates (UAPs). Control IgG1 (25 μg/ml), cixutumumab (25 μg/ml), PP2 (10 μM), and an integrin β3 neutralizing antibody B3A (10 μg/ml) were diluted in culture media containing 10% FBS or IGF-1 and treated alone or in combination. To examine the effect on cancer cell proliferation, a 3-(4,5-dimethylthiazol-2-yl)-2,5-diphenyltetrazolium bromide (MTT) or 3-(4,5-dimethylthiazol-2-yl)-5-(3-carboxymethoxyphenyl)-2-(4-sulfophenyl)-2H-tetrazolium (MTS) assay was performed, and to evaluate the effect on anchorage-independent colony formation, a soft agar colony formation assay was performed according to a method in our previous report (Morgillo et al., 2006).
The PCPs were prepared according to a previously reported method (Fukazawa et al., 1995). In brief, tissue culture plates were collated twice with poly-(HEMA) (10 mg/ml in 95% ethanol) at 37° C. and then washed with phosphate-buffered saline (PBS) several times.
HNSCC and NSCLC cells grown in PCPs and UAPs were treated with cixutumumab (25 μg/ml) for 7 days. Each bar represents mean±SD of 6 wells of a single representative experiment.

HNSCC and NSCLC cells = test: Soft agar colony formation assay; type: cell-based, human
Procedure: To evaluate the effect on anchorage-independent colony formation, cells were suspended in 0.4% agar in media at a density of 2×10^3 cells per well, replated in 12-well plates that have been pre-coated with 0.8% agar, and cultured in growth medium containing cixutumumab (25 μg/ml) for 2-6 weeks. Cells were stained with 0.1% Coomassie brilliant blue in PBS, and the colonies >0.2 mm in diameter were counted. Independent experiments were repeated three times.
Because cells grown in the 3D environment might differ from cells growing in PCPs and UAPs, the present inventor evaluated the effects of cixutumumab on cell growth in soft agar, a 3D culture system. 10 HNSCC and 6 NSCLC cells were cultured in soft agar for 4 to 6 weeks in the presence or absence of cixutumumab (25 μg/ml).

[2] = system: 13 HNSCC and 6 NSCLC cells; test: MTT cell viability in conventional 2D culture (TCPs); type: cell-based, human; conditions: 25 μg/ml, up to 7 days, MTT assay
Procedure: A panel of 13 HNSCC and 6 NSCLC cells grown in 2D culture conditions using TCPs were treated with 25 μg/ml cixutumumab, and the effect of cixutumumab on growth of cancer cells tested was analyzed by the MTT assay.
The effect of cixutumumab on growth of 13 HNSCC and 6 NSCLC cells was evaluated by the MTT assay, and the results are shown in FIG. 2.
LN686, UMSCC38, and A549m cells were treated with cixutumumab diluted in 1% FBS-containing medium for 3 and 5 days. Cell viability was evaluated by the MTT assay.

LN686 tumor xenografts = test: LN686 xenograft, cixutumumab and Ad-CSK; type: in vivo, mouse; conditions: after 21 days
Procedure: LN686, UMSCC38, H226B, or A549m cells (1×10^6 cells/mouse in 100 μl of PBS) were subcutaneously injected into nude mice at a single dorsal flank site (6-9 mice per group). For HNSCC patient-derived tumor xenografts, primary human tumor specimens were collected from an untreated patient who underwent lobectomies of squamous carcinoma of the oral cavity. The tumors were cut into small pieces with a size of 2-mm^3 and subcutaneously implanted into the nude mice (one piece per mouse). At 0 day (the time point when tumor size reached to 80 to 100 mm^3) mice were treated with cixutumumab (10 mg/kg, i.p., once or twice a week), Ad-EV (3×10^11 pfu, intratumoral injection, once a week), Ad-CSK (3×10^11 pfu, intratumoral injection, once a week), siCon, siintegrin β3 ([…], i.p., once a week), dasatinib (20 mg/kg, oral gavage, daily), cixutumumab and Ad-CSK, or cixutumumab and dasatinib.
To further determine the effects of inhibiting integrin β3/Src signaling on antitumor activities of cixutumumab, an adenovirus expressing c-Src tyrosine kinase that phosphorylates the autoinhibitory tyrosine 527 was used (Yeatman, 2004). […]

integrin β3 = test: Immunoprecipitation of integrin β3 / β1 with Src, FAK, p85; type: cell-based, human
Procedure: Total cell lysates were immunoprecipitated with antibodies against integrin β3, integrin β1, or IgG. The precipitates with protein A agarose were resolved by sodium dodecyl sulfate-polyacrylamide gel electrophoresis (SDS-PAGE) and transferred to a polyvinylidene difluoride (PVDF) membrane. Western blot analysis was performed using specific Abs described as follows, and antigen-antibody complexes were visualized using enhanced chemiluminescence plus kits (Amersham Biosciences, Piscataway, N.J.).
The LN686 cells grown in PCP were treated with cixutumumab (25 μg/ml) for indicated times prior to stimulation with 10% FBS (FIGS. 14 and 15) or IGF-1 (100 ng/ml) (FIGS. 16 and 17) in the presence or absence of anti-human IGF-1 neutralizing monoclonal antibody (αIGF-1) (FIGS. 15 and 16) for indicated times (FIG. 16) or for 30 min (FIGS. 14, 15, and 17). Immunoprecipitation with whole proteins or integrin β3 antibodies was performed on the presented proteins, and expression of the proteins was analyzed by western blot analysis.

Substance: cixutumumab: humanized mAb targeting IGF-1R, provided by ImClone Systems
- inhibition in viability ([1]; 7 HNSCC and 2 NSCLC cell lines (red, resistant)): less than 20%
- inhibition in viability ([1]; remaining 2 HNSCC and 2 NSCLC cell lines (black, sensitive)): more than 60%
- colony formation in soft agar (HNSCC and NSCLC cells; OSC19 and A549 cells, 3D system): concentration-dependent inhibitory effects
- colonies formed in soft agar (HNSCC and NSCLC cells; sensitive NSCLC and HNSCC lines vs resistant and mildly sensitive lines, 25 μg/ml, 4 to 6 weeks): significantly fewer colonies
- viability of cells grown in 2D culture conditions [2]: did not inhibit
- mean tumor weight compared to a control group (LN686 tumor xenografts): 96%
- FBS-induced associations between integrin β3 and Src or p85 and phosphorylation of FAK and Src (integrin β3; LN686 in PCP, 25 μg/ml, time-dependent): enhanced
- associations between integrin β1 and p-Src (Y416) or p-FAK (Y861) (integrin β3; after IGF-1 stimulation, cixutumumab pretreatment): did not affect
